In patent US20260001928A1 (CORTERIA PHARMACEUTICALS, priority 2022, published 2026):
*1 amine or outer side, *2 acyl side, *3 side chain or, on linkers, in order; H or OH if unused. Where a SMILES comes first, the peptide text is derived from it. Side-chain parts run from the residue outwards. [ ]: non-standard residue; d: D form. The star is where a group is joined. C16 diacid = O=C(O)CCCCCCCCCCCCCCC(=O)*; γGlu = O=C(O)[C@H](CCC(=O)[*:2])N[*:1]; αMeL = CC(C)C[C@](C)(N)C(=O)O; Aib = CC(C)(N)C(=O)O

What was measured:
[1] = biological target: T1, human CRF2a receptor (Homo sapiens, UniProt Q13324); assay: Activity at human CRF2a receptor, cAMP functional assay in TeloHEAC cells; type: cell-based; settings: TeloHEAC cells stably expressing human CRF2a receptor, relative to urocortin 2 (100 nM = 100%)
T1 construct: expressed in transfected cells; host or cells: TeloHEAC cells
T1 sequence (Q13324 1-411): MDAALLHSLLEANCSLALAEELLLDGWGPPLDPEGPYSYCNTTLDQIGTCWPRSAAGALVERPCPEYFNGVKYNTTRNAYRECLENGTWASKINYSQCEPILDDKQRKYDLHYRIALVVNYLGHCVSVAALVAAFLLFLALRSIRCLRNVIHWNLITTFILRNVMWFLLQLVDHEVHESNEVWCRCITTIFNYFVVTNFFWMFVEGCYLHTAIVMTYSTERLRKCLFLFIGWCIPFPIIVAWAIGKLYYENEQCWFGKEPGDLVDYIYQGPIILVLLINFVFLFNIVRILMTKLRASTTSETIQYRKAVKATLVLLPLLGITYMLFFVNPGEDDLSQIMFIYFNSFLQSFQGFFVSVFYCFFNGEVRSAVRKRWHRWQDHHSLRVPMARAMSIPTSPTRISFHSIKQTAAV
Method in brief: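 cAMP accumulation was measured by HTRF 665/620 nm ratio after 30 min at 37° C compound exposure (16 twofold dilutions) of CRF2a-expressing TeloHEAC cells, 10000/well, in HEPES-buffered HBSS plus IBMX. Activity was normalised to urocortin 2 at 100 nM (100%), and EC50 was the concentration giving half-maximal activation.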

[2] = biological target: T2, CFR1R receptor (Homo sapiens, UniProt P34998); assay: Activity at anti-target CFR1R receptor, cAMP assay in CRF1R-overexpression CHO-K1 cells; type: cell-based; settings: 100% = Sauvagine at 100 nM; for EC50: cAMP
T2 construct: host or cells: CHO-K1 (clone 2)
T2 sequence (P34998 24-415): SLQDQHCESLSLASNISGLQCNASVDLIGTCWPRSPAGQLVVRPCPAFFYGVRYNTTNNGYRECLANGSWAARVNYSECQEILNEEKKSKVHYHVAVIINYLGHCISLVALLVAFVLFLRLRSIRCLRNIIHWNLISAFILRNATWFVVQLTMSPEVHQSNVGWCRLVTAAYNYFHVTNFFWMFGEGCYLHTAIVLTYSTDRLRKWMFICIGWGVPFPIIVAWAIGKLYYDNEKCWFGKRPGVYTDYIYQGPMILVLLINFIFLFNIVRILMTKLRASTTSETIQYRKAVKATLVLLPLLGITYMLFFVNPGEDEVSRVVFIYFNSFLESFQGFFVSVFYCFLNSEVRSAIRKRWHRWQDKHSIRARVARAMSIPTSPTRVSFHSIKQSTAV
Method in brief: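 Clone 2; cryopreserved stocks (10% DMSO); 4000 cells/well final; 100% activation = Sauvagine 100 nM; otherwise as TeloHAEC protocol.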

[3] = Chemical stability in buffer (pH 7.4 / pH 4.5), % purity loss; type: physicochemical; settings: 40° C. vs 5° C., 14 or 28 days; for Buffer stability pH 4.5 % purity loss: 100 mM acetate buffer pH 4.5; for Buffer stability pH 7.4 % purity loss: 100 mM phosphate buffer pH 7.4
Experimental: Solubility and chemical stability were studied in 100 mM phosphate buffer (pH 7.4) and 100 mM acetate buffer (pH 4.5). Test compound powders were dissolved in both buffers at a target concentration of 10 mg/mL and incubated for 1 hour at room temperature. After centrifugation at 2500 rcf for 15 minutes, 10 μL of supernatant was diluted with 190 μL of the incubation buffer and analyzed by LC-UV (Acquity UPLC-DAD, Waters). Solubility was calculated by comparing the peak area of the test compound in the buffer sample with the peak area of the same compound dissolved at 0.5 mg/mL in water:acetonitrile 1:1, 0.1% formic acid.
From the centrifuged supernatant, two additional 80 μL aliquots were collected and diluted with 160 μL of incubation buffer. One aliquot was stored at 5° C., while the other was stored at 40° C. After 14 or 28 days, the samples were analyzed by LC-UV. Chemical stability was calculated as % loss using the following equations: […]

[4] = tested on: Sprague Dawley rats; assay: Effect on systolic blood pressure, telemetry in Sprague Dawley rats; type: in vivo, rat; settings: 0.1 mg/kg SC; for Systolic blood pressure (Mean) % change from baseline, 8 h / Systolic blood pressure (Mean) % change from baseline, 12 h / Systolic blood pressure (Mean) % change from baseline, 24 h: n=2; for Duration of action: last time point with an effect on BP still observed
Method in brief: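 Values are % change from a 1 h pre-dose baseline in systolic pressure, tracked by telemetry for up to 48 hours after a single 0.1 mg/kg subcutaneous dose. Rats (Sprague Dawley, n=2 per peptide) carried aortic catheters and recovered at least 10 days post-surgery; duration of action marks the last time point still showing an effect.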

| EC50 [1] | Emax (% I) [2] | EC50 [2] | Buffer stability pH 4.5 % purity loss [3] | Buffer stability pH 7.4 % purity loss [3] | Compound | Systolic blood pressure (Mean) % change from baseline, 8 h [4] | Systolic blood pressure (Mean) % change from baseline, 12 h [4] | Systolic blood pressure (Mean) % change from baseline, 24 h [4] | Duration of action [4] |
| --- | --- | --- | --- | --- | --- | --- | --- | --- | --- |
| 0.28 nM | 6 % I | > 250 nM | 0/0 ^ % | 0/0 ^ % | CC[C@H](C)[C@H](NC(C)=O)C(=O)N[C@H](C(=O)N[C@@H](CC(C)C)C(=O)N[C@@H](CO)C(=O)N[C@@H](CC(C)C)C(=O)N[C@@H](CC(=O)O)C(=O)N[C@H](C(=O)N1CCC[C@H]1C(=O)N[C@H](C(=O)N[C@@H](CCCCN)C(=O)N[C@@](C)(CC(C)C)C(=O)N[C@@H](CCCCNC(=O)CC[C@H](NC(=O)CCCCCCCCCCCCCCC(=O)O)C(=O)O)C(=O)N[C@@H](CCC(N)=O)C(=O)N[C@H](C(=O)N[C@@H](CC(C)C)C(=O)N[C@@H](CC(C)C)C(=O)N[C@@H](CCCCN)C(=O)N[C@@H](CCC(N)=O)C(=O)N[C@@H](CCC(=O)O)C(=O)N[C@@H](CCCNC(=N)N)C(=O)N[C@@H](CCC(N)=O)C(=O)N[C@@H](CCCCN)C(=O)N[C@@H](CCCCN)C(=O)N[C@@H](CCC(N)=O)C(=O)N[C@@H](CCCNC(=N)N)C(=O)N[C@@H](CCC(=O)O)C(=O)N[C@@H](CCC(N)=O)C(=O)N[C@@H](C)C(=O)N[C@@H](CCC(=O)O)C(=O)N[C@@H](CCCCN)C(=O)N[C@@H](CC(N)=O)C(=O)NC(C)(C)C(=O)N[C@@H](CCC(N)=O)C(=O)N[C@H](C(=O)N[C@@H](CC(C)C)C(=O)N[C@@H](CCC(=O)O)C(=O)N[C@@H](CCC(N)=O)C(=O)N[C@H](C(N)=O)C(C)C)[C@@H](C)CC)[C@@H](C)CC)[C@@H](C)CC)C(C)C)C(C)C [compound 19] (Ac-IVLSLDVPIK[αMeL]K([γGlu-C16 diacid])QILLKQERQKKQREQAEKN[Aib]QILEQV-NH2) | −21% | 0% | 10% | 11 h |
| 0.47 nM | 13 % I | > 250 nM | 0% | 18.8% | CC[C@H](C)[C@H](NC(=O)[C@H](CCC(N)=O)NC(=O)[C@H](CCCCN)NC(=O)[C@H](CC(N)=O)NC(=O)[C@@H](NC(=O)[C@H](CCC(=O)O)NC(=O)[C@H](C)NC(=O)[C@H](CCC(N)=O)NC(=O)[C@H](CCC(=O)O)NC(=O)[C@H](CCCNC(=N)N)NC(=O)[C@H](CCC(N)=O)NC(=O)[C@H](CCCCN)NC(=O)[C@H](CCCCN)NC(=O)[C@H](CCC(N)=O)NC(=O)[C@H](CCCCN)NC(=O)[C@H](CCC(=O)O)NC(=O)[C@H](CCC(N)=O)NC(=O)[C@H](CCC(=O)O)NC(=O)[C@H](CC(C)C)NC(=O)[C@H](CC(C)C)NC(=O)[C@@H](NC(=O)[C@H](CCCCN)NC(=O)[C@H](CCCCNC(=O)CC[C@H](NC(=O)CCCCCCCCCCCCCCC(=O)O)C(=O)O)NC(=O)[C@H](CC(C)C)NC(=O)[C@H](CCCCN)NC(=O)[C@@H](NC(=O)[C@@H]1CCCN1C(=O)[C@H](NC(=O)[C@H](CC(=O)O)NC(=O)[C@H](CC(C)C)NC(=O)[C@H](CO)NC(=O)[C@H](CC(C)C)NC(=O)[C@@H](NC(C)=O)C(C)C)C(C)C)[C@@H](C)CC)[C@@H](C)CC)[C@@H](C)O)C(=O)N[C@@H](CC(C)C)C(=O)N[C@@H](C)C(=O)N[C@@H](CCC(N)=O)C(=O)N[C@H](C(N)=O)C(C)C [compound 33] (Ac-VLSLD[dV]PIKLK([γGlu-C16 diacid])KILLEQEKQKKQREQAETNKQILAQV-NH2) | −22% | −11% | 16% | 17 h |
| 0.3 nM | 1 % I | > 250 nM | – | 0/nd ^ % | CC[C@H](C)[C@H](NC(C)=O)C(=O)N[C@H](C(=O)N[C@@H](CC(C)C)C(=O)N[C@@H](CO)C(=O)N[C@@H](CC(C)C)C(=O)N[C@@H](CC(=O)O)C(=O)N[C@H](C(=O)N1CCC[C@H]1C(=O)N[C@H](C(=O)N[C@@H](CCCCN)C(=O)N[C@@](C)(CC(C)C)C(=O)N[C@@H](CCCCNC(=O)CC[C@H](NC(=O)CCCCCCCCCCCCCCC(=O)O)C(=O)O)C(=O)N[C@@H](CCCCN)C(=O)N[C@H](C(=O)N[C@@H](CC(C)C)C(=O)N[C@@H](CC(C)C)C(=O)N[C@@H](CCC(=O)O)C(=O)N[C@@H](CCC(N)=O)C(=O)N[C@@H](CCC(=O)O)C(=O)N[C@@H](CCCCN)C(=O)N[C@@H](CCC(N)=O)C(=O)N[C@@H](CCCCN)C(=O)N[C@@H](CCCCN)C(=O)N[C@@H](CCC(N)=O)C(=O)N[C@@H](CCCNC(=N)N)C(=O)N[C@@H](CCC(=O)O)C(=O)N[C@@H](CCC(N)=O)C(=O)N[C@@H](C)C(=O)N[C@@H](CCC(=O)O)C(=O)N[C@H](C(=O)N[C@@H](CC(N)=O)C(=O)NC(C)(C)C(=O)N[C@@H](CCC(N)=O)C(=O)N[C@H](C(=O)N[C@@H](CC(C)C)C(=O)N[C@@H](C)C(=O)N[C@@H](CCC(N)=O)C(=O)N[C@H](C(N)=O)C(C)C)[C@@H](C)CC)[C@@H](C)O)[C@@H](C)CC)[C@@H](C)CC)C(C)C)C(C)C [compound 43] (Ac-IVLSLDVPIK[αMeL]K([γGlu-C16 diacid])KILLEQEKQKKQREQAETN[Aib]QILAQV-NH2) | −18% | −1% | 13% | 12 h |
| 0.09 nM | 10 % I | > 250 nM | 0% | 9.0% | CC[C@H](C)[C@H](NC(C)=O)C(=O)N[C@H](C(=O)N[C@@H](CC(C)C)C(=O)N[C@@H](CO)C(=O)N[C@@H](CC(C)C)C(=O)N[C@@H](CC(=O)O)C(=O)N[C@@H](C(=O)N1CCC[C@H]1C(=O)N[C@H](C(=O)N[C@@H](CCCCN)C(=O)N[C@@H](CC(C)C)C(=O)N[C@@H](CCCCNC(=O)CC[C@H](NC(=O)CCCCCCCCCCCCCCC(=O)O)C(=O)O)C(=O)N[C@@H](CCCCN)C(=O)N[C@H](C(=O)N[C@@H](CC(C)C)C(=O)N[C@@H](CC(C)C)C(=O)N[C@@H](CCC(=O)O)C(=O)N[C@@H](CCC(N)=O)C(=O)N[C@@H](CCC(=O)O)C(=O)N[C@@H](CCCCN)C(=O)N[C@@H](CCC(N)=O)C(=O)N[C@@H](CCCCN)C(=O)N[C@@H](CCCCN)C(=O)N[C@@H](CCC(N)=O)C(=O)N[C@@H](CCCNC(=N)N)C(=O)N[C@@H](CCC(=O)O)C(=O)N[C@@H](CCC(N)=O)C(=O)N[C@@H](C)C(=O)N[C@@H](CCC(=O)O)C(=O)N[C@H](C(=O)N[C@@H](CC(N)=O)C(=O)N[C@@H](C)C(=O)N[C@@H](CCC(N)=O)C(=O)N[C@H](C(=O)N[C@@H](CC(C)C)C(=O)N[C@@H](C)C(=O)N[C@@H](CCC(N)=O)C(=O)N[C@H](C(N)=O)C(C)C)[C@@H](C)CC)[C@@H](C)O)[C@@H](C)CC)[C@@H](C)CC)C(C)C)C(C)C [compound 47] (Ac-IVLSLD[dV]PIKLK([γGlu-C16 diacid])KILLEQEKQKKQREQAETNAQILAQV-NH2) | −14% | −6% | 2% | 23 h |
